Experiments:
Assay in all cases: selective drug sensitivity score (sDSS, relative to normal bone marrow) (sDSS (score)); higher = more potent and effective on the cell line relative to normal bone marrow cells
Conditions in all cases: 72 h
KASUMI-2 = tested on: KASUMI-2
MOLT-14 = tested on: MOLT-14
MHH-CALL-3 = tested on: MHH-CALL-3
P30-OHKUBO = tested on: P30-OHKUBO
COG-LL-319h = tested on: COG-LL-319h
HAL-01 = tested on: HAL-01
ALL-SIL = tested on: ALL-SIL
TMD5 = tested on: TMD5
RPMI-8402 = tested on: RPMI-8402
TANOUE = tested on: TANOUE
DND-41 = tested on: DND-41
CCRF-CEM = tested on: CCRF-CEM
KOPN-8 = tested on: KOPN-8
JURKAT = tested on: JURKAT
CCRF-HSB2 = tested on: CCRF-HSB2
COG-LL-402h = tested on: COG-LL-402h
MOLT-4 = tested on: MOLT-4
380 = tested on: 380
PEER = tested on: PEER
REH = tested on: REH
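Also: ALL cell lines in 384-well plates, five doses spanning 10,000-fold, each plate scaled between vehicle and 100 µmol/L benzalkonium chloride controls, sDSS an adapted area-under-curve metric.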

Structure (SMILES)	selective drug sensitivity score (KASUMI-2)	selective drug sensitivity score (MOLT-14)	selective drug sensitivity score (MHH-CALL-3)	selective drug sensitivity score (P30-OHKUBO)	selective drug sensitivity score (COG-LL-319h)	selective drug sensitivity score (HAL-01)	selective drug sensitivity score (ALL-SIL)	selective drug sensitivity score (TMD5)	selective drug sensitivity score (RPMI-8402)	selective drug sensitivity score (TANOUE)	selective drug sensitivity score (DND-41)	selective drug sensitivity score (CCRF-CEM)	selective drug sensitivity score (KOPN-8)	selective drug sensitivity score (JURKAT)	selective drug sensitivity score (CCRF-HSB2)	selective drug sensitivity score (COG-LL-402h)	selective drug sensitivity score (MOLT-4)	selective drug sensitivity score 380	selective drug sensitivity score (PEER)	selective drug sensitivity score (REH)
Cc1ccc(C(=O)N(CCCN)[C@@H](c2oc3cc(Cl)ccc3c(=O)c2Cc2ccccc2)C(C)C)cc1 (top concentration 100 nM)	3.56	3.76	-2.44	4.06	13	3.66	1.06	11.9	2.86	-3.64	-0.64	2.76	3.46	2.96	9.56	3.06	1.16	1.46	4.96	4.26
C[C@@H](Oc1ccc2[nH]nc(/C=C/c3cnn(CCO)c3)c2c1)c1c(Cl)cncc1Cl (top concentration 1000 nM)	-7.04	-0.94	-7.04	6.06	4.66	1.36	14.3	-0.74	-3.14	-7.04	7.06	-2.74	-2.44	-4.84	3.86	-2.14	-0.54	-1.34	5.46	-0.64
CCn1c(C(=O)N(C2CC2)C2CC2)cc2c3c(ncn3C)c(Nc3cc(C)n(C)n3)nc21 (top concentration 10000 nM)	-4.36	-4.36	-4.36	-3.66	-4.36	1.04	-4.36	-4.36	-4.16	-4.36	-3.86	-3.96	-4.36	-4.36	5.14	-4.36	-3.36	-4.36	-4.36	-4.36
CNc1nc(-c2ccc3c(N)n[nH]c3c2)cc(N2C[C@@H](C(=O)NC3CCCCC3)CC[C@H]2C)n1 (top concentration 10000 nM)	7.26	-0.14	-0.14	7.86	2.96	-0.14	1.36	2.16	-0.14	0.16	1.96	1.36	7.26	-0.14	-0.14	6.36	-0.14	-0.14	-0.14	3.86
COc1ccc(Cn2ccc3ccc(C(=O)NO)cc32)cc1 (top concentration 10000 nM)	-1.06	5.64	1.74	2.24	8.04	5.84	2.64	-0.96	1.54	1.34	2.94	3.34	8.74	2.84	6.64	5.44	1.44	10.2	2.24	2.54
N#Cc1ccc(COC[C@H]2O[C@@H](n3c(NCc4ccc(Cl)c(Cl)c4)nc4c(N)ncnc43)[C@H](O)[C@@H]2O)cc1 (top concentration 10000 nM)	-0.08	9.22	0.32	1.62	7.52	0.42	11.7	-1.38	7.92	1.42	8.82	7.62	2.02	4.72	9.92	2.02	5.32	-0.98	10.7	9.12
NC[C@@](O)(c1ccc(Cl)cc1)c1ccc(-c2cn[nH]c2)cc1 (top concentration 10000 nM)	2.78	-1.22	5.78	3.68	1.48	1.08	-1.22	4.98	3.28	-1.22	-1.22	3.88	3.38	2.58	5.28	5.78	-0.42	13.9	3.08	2.88
O=c1[nH]c(C2CCCN2)nc2c1oc1ccc(Cl)cc12 (stereo not given) (top concentration 10000 nM)	7.2	6.4	-0.7	1.2	2	0.2	0.6	-2.8	6.2	-2.8	-1.1	5.8	8.1	-2.8	3.7	-1.5	-2.8	13.1	0.3	0.3
NCC(=O)Nc1ccc(-n2nc(C(F)(F)F)cc2-c2ccc3c(ccc4ccccc43)c2)cc1 (top concentration 25000 nM)	0.1	11.2	-0.2	7.6	8	5.5	8.4	-0.2	13	4.7	7.5	7.9	7.4	15.3	16.4	-0.2	14.7	9.6	9.9	12.5
Nc1ncnc2c1nc(Cl)n2[C@@H]1O[C@H](CO)[C@@H](O)[C@H]1O [8-chloro-adenosine] (top concentration 50000 nM)	-1.8	0.3	-1.6	2.8	4.3	-1.5	-3.4	-2.1	-0.9	-5.3	-3.9	9.1	5.9	0.3	3.6	3.1	3.3	-6.3	0.5	-0.6

— the supplement of paper PMC8967900
